Assay results reported in ChEMBL document CHEMBL1201862, “PubChem BioAssay data set” (2004).
Calls of active or inactive are those of the source.

Key:
[1] = molecular target: T1, Oxysterols receptor LXR-beta (Homo sapiens, UniProt P55055); type: functional, cell-based;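 note: Cell-based luminescence dose-response assay of agonist activity at LXR, run as a confirmatory counterscreen to a daf-12 agonist screen; HEK293 cells with Gal4-LXR fusion and GAL4-driven luciferase reporter; agonist potency from rising luciferase signal of a Gal4-LXR reporter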
T1 sequence (P55055 whole entry): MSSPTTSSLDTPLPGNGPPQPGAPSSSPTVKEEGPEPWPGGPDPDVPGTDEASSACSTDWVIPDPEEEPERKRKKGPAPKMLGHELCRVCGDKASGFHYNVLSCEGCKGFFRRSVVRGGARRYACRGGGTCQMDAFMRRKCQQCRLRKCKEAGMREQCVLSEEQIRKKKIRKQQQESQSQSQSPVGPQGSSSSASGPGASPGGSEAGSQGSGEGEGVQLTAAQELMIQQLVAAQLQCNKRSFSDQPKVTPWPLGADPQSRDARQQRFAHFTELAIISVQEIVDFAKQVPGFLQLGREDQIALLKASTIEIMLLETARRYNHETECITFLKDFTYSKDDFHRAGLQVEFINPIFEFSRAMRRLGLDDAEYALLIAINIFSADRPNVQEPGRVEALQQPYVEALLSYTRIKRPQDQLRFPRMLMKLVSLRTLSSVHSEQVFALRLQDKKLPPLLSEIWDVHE

cells [2] = assay: cells
[3] = molecular target: T2, Tyrosine-protein phosphatase non-receptor type 7 (Homo sapiens, UniProt P35236); assay: inhibitors of human HePTP phosphatase, […], biochemical, absorbance, leukemia target (AID 521); type: functional
T2 sequence (P35236 whole entry): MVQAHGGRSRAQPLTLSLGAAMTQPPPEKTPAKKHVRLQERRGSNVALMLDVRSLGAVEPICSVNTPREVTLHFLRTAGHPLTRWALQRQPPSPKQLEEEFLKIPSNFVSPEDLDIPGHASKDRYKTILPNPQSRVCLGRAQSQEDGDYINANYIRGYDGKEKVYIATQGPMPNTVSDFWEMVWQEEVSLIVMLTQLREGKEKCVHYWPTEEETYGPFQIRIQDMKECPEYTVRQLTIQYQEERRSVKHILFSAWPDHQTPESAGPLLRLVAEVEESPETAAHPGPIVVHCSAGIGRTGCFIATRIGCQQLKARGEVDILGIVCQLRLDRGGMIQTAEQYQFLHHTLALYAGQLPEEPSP

[4] = molecular target: Endoplasmic reticulum aminopeptidase 2 (Homo sapiens, UniProt Q6P179); assay: ERAP2 aminopeptidase inhibitors, dose response, selectivity assay for selective ERAP1 modulator project, biochemical, fluorescence plate reader, cherry-picked, set 2 (AID 743320)
Chain of Endoplasmic reticulum aminopeptidase 2 (Q6P179 whole entry): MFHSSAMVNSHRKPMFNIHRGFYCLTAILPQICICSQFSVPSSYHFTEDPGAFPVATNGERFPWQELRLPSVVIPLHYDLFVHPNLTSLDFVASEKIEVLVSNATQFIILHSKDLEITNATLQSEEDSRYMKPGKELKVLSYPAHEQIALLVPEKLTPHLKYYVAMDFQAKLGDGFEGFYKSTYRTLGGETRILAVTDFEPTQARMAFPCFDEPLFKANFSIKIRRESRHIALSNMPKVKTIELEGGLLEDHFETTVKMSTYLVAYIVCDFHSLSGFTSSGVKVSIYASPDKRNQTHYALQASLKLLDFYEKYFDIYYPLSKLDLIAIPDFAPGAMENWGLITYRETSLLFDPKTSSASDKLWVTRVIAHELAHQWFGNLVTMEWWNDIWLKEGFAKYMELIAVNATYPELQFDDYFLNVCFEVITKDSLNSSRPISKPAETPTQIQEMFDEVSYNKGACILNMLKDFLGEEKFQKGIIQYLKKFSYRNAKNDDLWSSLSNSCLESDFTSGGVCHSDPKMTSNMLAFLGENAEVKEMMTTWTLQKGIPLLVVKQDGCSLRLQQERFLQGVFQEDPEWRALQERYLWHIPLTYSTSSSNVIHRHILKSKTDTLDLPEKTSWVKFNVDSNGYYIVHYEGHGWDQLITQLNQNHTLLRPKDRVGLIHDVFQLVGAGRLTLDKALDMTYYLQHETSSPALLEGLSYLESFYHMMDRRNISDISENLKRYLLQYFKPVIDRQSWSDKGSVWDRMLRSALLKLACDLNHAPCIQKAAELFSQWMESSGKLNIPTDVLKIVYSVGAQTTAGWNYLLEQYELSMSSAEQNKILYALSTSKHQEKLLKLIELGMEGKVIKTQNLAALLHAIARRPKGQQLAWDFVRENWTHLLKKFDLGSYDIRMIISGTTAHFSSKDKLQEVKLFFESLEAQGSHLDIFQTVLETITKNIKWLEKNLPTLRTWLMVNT

[5] = molecular target: Endoplasmic reticulum aminopeptidase 1 (Homo sapiens, UniProt Q9NZ08); assay: ERAP1 aminopeptidase inhibitors, dose response, biochemical, cherry-pick, set 2, plate reader (AID 743314)
[6] = molecular target: 1-phosphatidylinositol 4,5-bisphosphate phosphodiesterase beta-3 (Homo sapiens, UniProt Q01970); assay: Fluorescence-based biochemical high throughput dose response assay to identify inhibitors of phospholipase C isozymes (PLC-B3).
[7] = molecular target: 1-phosphatidylinositol 4,5-bisphosphate phosphodiesterase gamma-1 (Homo sapiens, UniProt P19174); assay: Counterscreen for inhibitors of phospholipase C isozymes (PLC-B3): Fluorescence-based biochemical high throughput dose response assay to identify inhibitors of phospholipase C isozymes (PLC-gamma1).
Chain of 1-phosphatidylinositol 4,5-bisphosphate phosphodiesterase gamma-1 (P19174 whole entry): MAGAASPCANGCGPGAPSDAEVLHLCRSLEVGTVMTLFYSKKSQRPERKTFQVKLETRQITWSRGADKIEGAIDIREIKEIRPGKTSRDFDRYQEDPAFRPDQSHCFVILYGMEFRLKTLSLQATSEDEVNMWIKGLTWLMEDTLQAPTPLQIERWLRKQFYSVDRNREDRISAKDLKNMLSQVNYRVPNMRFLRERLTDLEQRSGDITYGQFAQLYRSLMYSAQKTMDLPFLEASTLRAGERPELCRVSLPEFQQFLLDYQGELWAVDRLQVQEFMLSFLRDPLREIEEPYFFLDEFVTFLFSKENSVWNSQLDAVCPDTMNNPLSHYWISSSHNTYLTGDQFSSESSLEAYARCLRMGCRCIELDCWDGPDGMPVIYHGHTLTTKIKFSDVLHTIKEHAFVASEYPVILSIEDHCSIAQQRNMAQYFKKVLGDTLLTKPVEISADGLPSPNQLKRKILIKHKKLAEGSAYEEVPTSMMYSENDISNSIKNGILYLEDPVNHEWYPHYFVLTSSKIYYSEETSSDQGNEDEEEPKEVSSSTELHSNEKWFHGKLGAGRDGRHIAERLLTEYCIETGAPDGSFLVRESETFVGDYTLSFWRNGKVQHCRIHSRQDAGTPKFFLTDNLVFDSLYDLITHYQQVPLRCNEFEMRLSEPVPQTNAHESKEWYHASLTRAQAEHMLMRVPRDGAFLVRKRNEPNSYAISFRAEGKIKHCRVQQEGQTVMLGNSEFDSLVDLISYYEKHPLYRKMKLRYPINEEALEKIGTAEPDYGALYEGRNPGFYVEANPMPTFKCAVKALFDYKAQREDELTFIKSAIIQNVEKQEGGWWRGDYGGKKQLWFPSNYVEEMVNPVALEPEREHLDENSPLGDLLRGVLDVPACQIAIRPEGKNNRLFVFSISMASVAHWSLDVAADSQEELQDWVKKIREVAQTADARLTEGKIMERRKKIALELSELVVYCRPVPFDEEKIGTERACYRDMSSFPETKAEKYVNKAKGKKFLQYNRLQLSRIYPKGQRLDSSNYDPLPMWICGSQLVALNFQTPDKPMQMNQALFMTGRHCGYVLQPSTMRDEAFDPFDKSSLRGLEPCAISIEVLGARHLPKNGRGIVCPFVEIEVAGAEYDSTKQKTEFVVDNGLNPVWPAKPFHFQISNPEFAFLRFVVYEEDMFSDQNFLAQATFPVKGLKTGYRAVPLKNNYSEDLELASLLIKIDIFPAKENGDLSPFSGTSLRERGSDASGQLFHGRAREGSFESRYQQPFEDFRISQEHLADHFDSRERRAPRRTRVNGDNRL

Large T antigen = Large T antigen (Simian virus 40, UniProt P03070); type: functional, Betapolyomavirus macacae;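 note: Confirmatory-stage PubChem screen for compounds that inhibit SV40 T antigen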
Chain of Large T antigen (P03070 whole entry): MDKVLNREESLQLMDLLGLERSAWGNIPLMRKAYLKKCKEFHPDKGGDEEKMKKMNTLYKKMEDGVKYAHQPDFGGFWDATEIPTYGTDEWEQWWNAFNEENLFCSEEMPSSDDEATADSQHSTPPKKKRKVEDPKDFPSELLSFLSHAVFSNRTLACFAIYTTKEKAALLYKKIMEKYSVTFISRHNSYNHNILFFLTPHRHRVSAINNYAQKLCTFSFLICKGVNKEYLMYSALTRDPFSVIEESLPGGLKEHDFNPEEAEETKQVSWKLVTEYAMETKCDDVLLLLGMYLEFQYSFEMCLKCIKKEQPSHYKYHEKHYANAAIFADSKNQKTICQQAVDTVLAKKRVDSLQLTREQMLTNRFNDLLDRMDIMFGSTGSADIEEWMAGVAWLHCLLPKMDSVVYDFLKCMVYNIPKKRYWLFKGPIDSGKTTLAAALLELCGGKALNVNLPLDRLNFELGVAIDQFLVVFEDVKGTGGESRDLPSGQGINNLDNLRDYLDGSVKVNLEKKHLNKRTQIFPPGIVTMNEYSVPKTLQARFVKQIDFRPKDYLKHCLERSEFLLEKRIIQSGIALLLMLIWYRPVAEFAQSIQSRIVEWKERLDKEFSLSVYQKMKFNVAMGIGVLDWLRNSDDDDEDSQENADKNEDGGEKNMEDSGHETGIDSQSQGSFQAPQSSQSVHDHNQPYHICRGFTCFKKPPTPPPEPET

[8] = molecular target: Bifunctional protein GlmU (Mycobacterium tuberculosis, UniProt P9WMN3); assay: Inhibitors of Mycobacterial Glucosamine-1-phosphate acetyl transferase (GlmU). Secondary screen.; set-up: species or system Mycobacterium tuberculosis H37Rv
Chain of Bifunctional protein GlmU (P9WMN3 whole entry): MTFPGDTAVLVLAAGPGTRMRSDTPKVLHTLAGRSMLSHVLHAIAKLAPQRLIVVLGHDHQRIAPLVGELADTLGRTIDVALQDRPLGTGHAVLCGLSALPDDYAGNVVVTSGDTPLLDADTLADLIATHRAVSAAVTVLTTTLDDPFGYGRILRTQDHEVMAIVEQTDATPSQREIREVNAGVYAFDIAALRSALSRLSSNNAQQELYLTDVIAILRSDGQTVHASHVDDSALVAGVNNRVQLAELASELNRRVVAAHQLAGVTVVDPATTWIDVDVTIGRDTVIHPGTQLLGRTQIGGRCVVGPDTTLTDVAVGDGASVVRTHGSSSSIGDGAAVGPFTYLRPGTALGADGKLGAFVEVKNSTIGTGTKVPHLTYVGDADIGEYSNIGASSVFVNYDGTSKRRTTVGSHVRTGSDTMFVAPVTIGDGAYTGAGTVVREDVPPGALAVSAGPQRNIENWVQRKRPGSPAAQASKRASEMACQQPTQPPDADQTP

[9] = Counterscreen for inhibitors of Trypanosoma brucei methionyl tRNA synthetase (MetRS): Luminescence-based cell-based high throughput dose response assay to identify compounds that are cytotoxic to Jurkat human T lymphocyte cells.; type: functional
[10] = molecular target: T3, Methionyl-tRNA synthetase, putative (Trypanosoma brucei brucei, UniProt Q38C91); type: functional, Trypanosoma brucei brucei strain 927/4 GUTat10.1
T3 sequence (Q38C91 whole entry): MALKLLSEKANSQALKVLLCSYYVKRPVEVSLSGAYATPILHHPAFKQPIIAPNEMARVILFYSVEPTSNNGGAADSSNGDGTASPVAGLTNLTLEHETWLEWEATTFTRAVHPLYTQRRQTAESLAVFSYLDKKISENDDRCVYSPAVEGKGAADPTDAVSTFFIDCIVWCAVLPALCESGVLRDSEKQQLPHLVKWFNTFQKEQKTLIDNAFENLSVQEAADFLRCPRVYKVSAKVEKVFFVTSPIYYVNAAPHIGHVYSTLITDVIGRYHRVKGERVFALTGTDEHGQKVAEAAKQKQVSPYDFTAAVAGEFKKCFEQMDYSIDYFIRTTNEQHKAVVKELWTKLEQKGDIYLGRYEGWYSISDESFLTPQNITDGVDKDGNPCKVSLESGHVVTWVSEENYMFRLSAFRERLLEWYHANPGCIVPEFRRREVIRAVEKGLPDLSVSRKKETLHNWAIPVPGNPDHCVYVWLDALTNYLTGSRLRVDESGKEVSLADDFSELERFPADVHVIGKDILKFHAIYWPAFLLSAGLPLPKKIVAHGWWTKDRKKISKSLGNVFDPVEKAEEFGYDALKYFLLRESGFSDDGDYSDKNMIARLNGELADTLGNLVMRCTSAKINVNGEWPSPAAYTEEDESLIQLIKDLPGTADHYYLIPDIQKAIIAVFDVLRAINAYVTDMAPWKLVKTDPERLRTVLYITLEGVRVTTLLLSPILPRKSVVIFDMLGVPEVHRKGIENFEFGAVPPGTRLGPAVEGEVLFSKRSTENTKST

[11] = Late stage counterscreen for inhibitors of Trypanosoma brucei methionyl tRNA synthetase (MetRS): Luminescence-based cell-based high throughput dose response assay to identify compounds that are cytotoxic to Jurkat human T lymphocyte cells.; type: functional
[12] = molecular target: T3, Methionyl-tRNA synthetase, putative; type: functional, Trypanosoma brucei brucei strain 927/4 GUTat10.1; remark: listed apart in the source
[13] = molecular target: E3 ubiquitin-protein ligase Mdm2 (Homo sapiens, UniProt Q00987); assay: enhancers of MDM2-luciferase reporter signal, concentration-effect titration, project on inhibitors of MDM2 ubiquitin ligase, cellular assay, luminescent readout, 384-well plate format (AID 1394); type: functional;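 note: MDM2 E3 inhibitors raise luminescence so EC50 is for signal enhancement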
Chain of E3 ubiquitin-protein ligase Mdm2 (Q00987 whole entry): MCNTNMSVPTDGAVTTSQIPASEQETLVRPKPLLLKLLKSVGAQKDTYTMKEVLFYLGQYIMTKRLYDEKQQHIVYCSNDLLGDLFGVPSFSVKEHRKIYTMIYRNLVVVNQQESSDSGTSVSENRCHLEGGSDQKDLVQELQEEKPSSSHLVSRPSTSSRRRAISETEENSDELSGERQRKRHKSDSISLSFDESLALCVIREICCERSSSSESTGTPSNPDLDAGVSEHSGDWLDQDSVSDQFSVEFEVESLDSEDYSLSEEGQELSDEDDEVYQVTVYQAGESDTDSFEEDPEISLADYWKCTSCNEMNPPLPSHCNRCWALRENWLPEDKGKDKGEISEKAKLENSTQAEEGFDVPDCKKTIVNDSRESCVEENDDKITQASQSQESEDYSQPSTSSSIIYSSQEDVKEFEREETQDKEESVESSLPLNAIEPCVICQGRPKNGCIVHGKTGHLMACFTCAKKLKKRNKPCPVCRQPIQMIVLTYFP

cells [14] = type: functional, cell-based; conditions: INS-1E
[15] = Dose-response inhibition of insulin secretion in a rat insulinoma line at 5 mM glucose (AID 1117331); type: functional, cell-based; conditions: INS-1E
Streptococcus = assay: Group A Streptococcus viability loss, dose response, counter-screen for streptokinase expression inhibitor project, luminescence, BacTiterGlo (AID 1915); type: functional, organism-based;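 note: potency for reduction of bacterial viability or growth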
H9c2 = assay: cells; type: functional, cell-based; conditions: Rattus norvegicus, H9c2, Myocardium;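 note: confirmatory concentration-response retest of ultra-high-throughput screening hits for modulation of myocardial damage; cell death induced by hydrogen peroxide oxidative stress; compound pretreatment for 60 min then peroxide exposure for 2 h; potency is for protecting the cells against peroxide damage rather than for killing them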
Transthyretin = Transthyretin (Homo sapiens, UniProt P02766); assay: Luminescence-based cell-based high throughput dose response assay to identify activators of Transthyretin (TTR) transcription.; type: functional
[16] = test system: Streptococcus sp. 'group A'; assay: growth inhibition of control SK(-) GAS strain, dose response, counter-screen for streptokinase expression inhibitor project, luminescence, kanamycin, BacTiterGlo, confirmation (AID 1900); type: functional, organism-based
Streptokinase A = molecular target: T4, Streptokinase A (Streptococcus pyogenes serotype M1, UniProt P10520); assay: S. pyogenes streptokinase expression inhibitors, potency, dose response, plasminogen activation absorbance, OD405 (AID 1914); type: functional, Streptococcus pyogenes M1 GAS;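 note: secreted streptokinase activity via plasminogen activation per viability signal from cell pellet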
T4 sequence (P10520 whole entry): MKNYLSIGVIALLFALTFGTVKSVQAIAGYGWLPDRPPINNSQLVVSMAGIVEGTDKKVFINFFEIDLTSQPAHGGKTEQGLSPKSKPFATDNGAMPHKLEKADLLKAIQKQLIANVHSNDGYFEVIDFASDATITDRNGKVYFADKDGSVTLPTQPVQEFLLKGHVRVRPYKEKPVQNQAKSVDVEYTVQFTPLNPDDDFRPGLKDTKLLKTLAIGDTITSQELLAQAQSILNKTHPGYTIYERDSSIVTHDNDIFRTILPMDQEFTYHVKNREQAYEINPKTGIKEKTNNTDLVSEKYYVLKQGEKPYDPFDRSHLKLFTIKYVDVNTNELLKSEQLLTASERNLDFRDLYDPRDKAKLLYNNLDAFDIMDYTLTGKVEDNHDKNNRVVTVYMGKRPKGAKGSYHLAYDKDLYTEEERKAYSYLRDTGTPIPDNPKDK

For COc1ccc(C(=O)/N=c2\sc3ccccc3n2C)cc1, the EC50 [1] was > 67.5 µM (inactive) and the EC50 (cells [2]) was > 67.5 µM (inactive).

With Cc1ccc(-n2nnc3c(=O)n(CC(=O)NCc4ccco4)cnc32)cc1 the IC50 [3] was > 100 µM (not active).

For CC(C)[C@@H](C(=O)N[C@@H](CCc1ccc(O)cc1)C(=O)O)N(C)C(=O)[C@H](CO)NC(=O)[C@@H](O)[C@H](N)CCCCCCCCl, the AC50 [4] was 1.47 µM (active) and the AC50 [5] was 0.682 µM (active).

For NC(=O)CC(NC(=O)Cc1cccc2ccccc12)c1ccc(N2CCCCCC2)c([N+](=O)[O-])c1 (stereo unspecified), the IC50 [6] was > 122 µM (inactive) and the IC50 [7] was > 122 µM (inactive).

With COc1ccc(/C=C2/C(=O)NC(=O)N(Cc3ccco3)C2=O)cc1 the IC50 (Large T antigen) was 23.5 µM (active) and the IC50 [8] was 1.79 µM (active).

With Clc1ccc(-c2nnc(SCc3nc4ccccc4[nH]3)o2)c(Cl)c1 the IC50 [9] was 83.3 µM (inactive), the IC50 [10] was 0.401 µM (active) and the IC50 [11] was > 83.3 µM (inactive). For the same molecule, the IC50 [12] was 0.802 µM (active).

With Cc1ccc(-c2nc3ccccc3c(=O)n2-c2cccnc2)cc1 the EC50 [13] was 54.5 µM (not active).

With O=C(NN1CCCC1)NS(=O)(=O)c1ccc(Cl)cc1 [GLYCLOPYRAMIDE] the IC50 (cells [14]) was > 33.3 µM (inactive) and the IC50 [15] was 14.9 µM (inactive).

With CCCNC(=O)c1ccc(N2CCC3(CC2)CC(c2ccccc2)=NO3)c(NC(=O)c2ccco2)c1 the EC50 (Streptococcus) was 38.2 µM (active), the IC50 (H9c2) was 31 µM (inactive) and the EC50 (Transthyretin) was > 167 µM (inactive). The EC50 [16] was 15.7 µM (active) and the EC50 (Streptokinase A) was > 150 µM (not active).
